Source: ChEMBL document CHEMBL1201862, “PubChem BioAssay data set” (2004)
Activity calls are given as the source filed them.

Columns and labels:
[1] = inhibitors of TRPM1-promoter reporter in SK-MEL-5 – cell-based, luciferase, dry powder, set 9, MITF inhibitor project, dose response (AID 651588); type: functional
[2] = cytotoxicity in MITF-independent A375 cells – cell-based, CellTiter-Glo luminescence, dry powder, set 4, counter-screen for MITF inhibitor project, dose response (AID 624364); type: functional; details: A-375;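 further: A375 melanoma cells are MITF independent so this is a counter screen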
[3] = MITF Orthogonal Assay: MALME3 CTG Assay Measured in Cell-Based System Using Plate Reader - 2084-04_Inhibitor_Dose_DryPowder_Activity_Set6.; type: functional; details: MALME-3
[4] = growth inhibition of SK-MEL-5 melanoma cells – cell-based, CellTiter-Glo luminescence, dry powder, set 8, orthogonal assay for MITF inhibitor project, dose response (AID 651586); type: functional
[5] = growth inhibition of MALME3 cells – cell-based, CellTiter-Glo luminescence, dry powder, set 5, orthogonal assay for MITF inhibitor project, dose response (AID 651584); type: functional; details: MALME-3
[6] = cytotoxicity in melanoma parental cells – cell-based, CellTiter-Glo, dry powder, set 6, MITF inhibitor project, dose response (AID 624429); type: functional; details: SK-MEL-5
[7] = MITF Orthogonal Assay: SK-MEL-5 CTG Assay Measured in Cell-Based System Using Plate Reader - 2084-02_Inhibitor_Dose_DryPowder_Activity_Set5.; type: functional
[8] = viability loss in MITF-independent A375 cells – cell-based, CellTiter-Glo luminescence, dry powder, set 6, counter-screen for MITF inhibitor project, dose response (AID 624488); type: functional; details: A-375
[9] = MITF Measured in Cell-Based System Using Plate Reader - 2084-01_Inhibitor_Dose_DryPowder_Activity_Set6.; type: functional
[10] = MITF Measured in Cell-Based System Using Plate Reader - 2084-01_Inhibitor_Dose_DryPowder_Activity_Set7.; type: functional
[11] = melanocyte viability loss, MITF-dependent cells, cell-based, plate reader, dry powder, cytotoxicity control, dose response (AID 651920); type: functional
[12] = Luminescent dose response cell-based high throughput screening assay for inhibitors of the Janus kinase 2 mutant JAK2V617F. [Related pubchem assays: 1446 (Primary screen.), 1521 (Confirmation assay.), 1486 (Counter screen.)]; type: functional
[13] = Trypanosoma cruzi growth suppression in host cells – NIH3T3 host cells, beta-gal luminescence, confirmation (AID 2044); type: functional, cell-based;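 further: intracellular parasites grown in NIH/3T3 mouse fibroblasts as host cells; luminescent beta-galactosidase reporter signal from transgenic T. cruzi replicating inside host cells; inhibitors lower the luminescence signal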
[14] = NIH3T3 cell viability loss – ATP luminescence, mouse fibroblasts, counter-screen, dose response (AID 2010); type: functional, cell-based;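 further: cells exposed to compound for about 90 hours before reading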
[15] = THP-1 cell cytotoxicity, dose response, cytotoxicity control for non-replicating M. tuberculosis project (AID 489025); type: functional
[16] = Vero E6 cell cytotoxicity, dose response, cytotoxicity control for non-replicating M. tuberculosis project, secondary assay (AID 492998); type: functional, VeroE6; details: Vero C1008
cells = type: functional
HEK293 = test: EBV LMP1 TES2 canonical NF-kB signalling blockers – cell-based, HEK293, luciferase, cherry-pick, dose response (AID 588343); type: functional; details: Homo sapiens
[17] = biological target: G-protein coupled receptor 183 (Homo sapiens, UniProt P32249); test: SAR confirmation of small molecule antagonists of the EBI2 receptor via a luminescent beta-arrestin assa.; type: functional
G-protein coupled receptor 183, sequence (P32249 whole entry): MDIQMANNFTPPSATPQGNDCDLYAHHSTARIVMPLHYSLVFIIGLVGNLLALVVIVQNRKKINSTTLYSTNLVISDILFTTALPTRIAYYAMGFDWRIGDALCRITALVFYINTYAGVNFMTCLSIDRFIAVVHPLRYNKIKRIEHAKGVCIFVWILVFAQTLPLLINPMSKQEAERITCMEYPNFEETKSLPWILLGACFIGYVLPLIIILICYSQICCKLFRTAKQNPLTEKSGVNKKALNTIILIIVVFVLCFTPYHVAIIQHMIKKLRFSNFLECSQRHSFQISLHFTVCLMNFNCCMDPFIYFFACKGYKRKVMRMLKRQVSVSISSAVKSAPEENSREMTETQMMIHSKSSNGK

[18] = T. cruzi growth inhibition in host cells, dose response, cell-based, plate reader, dry powder, set 2 (AID 652275); type: functional
[19] = Trypanosoma cruzi replication inhibitors in host cells – cell-based, plate reader, dry powder samples, dose response (AID 651845); type: functional
[20] = anti-trypanosomal activity in BESM host cells – imaging, CA-I/72 strain, bovine embryo skeletal muscle, dry powder, dose response (AID 651885); type: functional, cell-based
[21] = viability inhibitors of stage V gametocytes – luminescence, dose response (AID 1117278); type: functional, cell-based;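 further: gametocytes exposed to compound for 24 hours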
[22] = viability loss in human Jurkat cells – cell-based, luminescence, cytotoxicity control for P. falciparum gametocyte viability project, dose response (AID 1117277); type: functional;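 further: potency reflects loss of cellular ATP meaning fewer viable cells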
[23] = biological target: Mitogen-activated protein kinase 10 (Homo sapiens, UniProt P53779); test: Dose response biochemical screening assay for inhibitors of c-Jun N-Terminal Kinase 3 (JNK3). [Related pubchem assays: 746 ]
Mitogen-activated protein kinase 10, sequence (P53779 whole entry): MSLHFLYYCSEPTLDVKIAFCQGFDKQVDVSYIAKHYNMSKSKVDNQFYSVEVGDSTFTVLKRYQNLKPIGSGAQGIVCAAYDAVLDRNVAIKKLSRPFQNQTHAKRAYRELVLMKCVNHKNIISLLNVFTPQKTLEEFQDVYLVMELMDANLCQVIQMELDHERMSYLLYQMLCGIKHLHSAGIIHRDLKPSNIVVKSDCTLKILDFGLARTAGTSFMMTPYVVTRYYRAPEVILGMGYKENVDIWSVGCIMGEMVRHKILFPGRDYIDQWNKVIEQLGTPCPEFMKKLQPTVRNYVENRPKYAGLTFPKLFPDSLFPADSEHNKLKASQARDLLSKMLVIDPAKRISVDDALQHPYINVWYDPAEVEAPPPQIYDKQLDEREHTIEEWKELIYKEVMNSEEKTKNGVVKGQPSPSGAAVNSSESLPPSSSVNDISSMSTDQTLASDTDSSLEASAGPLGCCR

O=C1C(Nc2ccccc2)=C(c2ccccc2)C(=O)c2ccccc21
inactive: AC50 [2] > 70 µM | AC50 [8] > 70 µM | AC50 [11] > 70 µM
active: AC50 [1] 28.8 µM | AC50 [3] 68.9 µM | AC50 [4] 29.3 µM | AC50 [5] 68.9 µM | AC50 [6] 35 µM | AC50 [7] 27.6 µM | AC50 [9] 10.2 µM | AC50 [10] 8.71 µM

COc1ccccc1-c1nnc(Sc2nc([N+](=O)[O-])nn2C)o1
active: IC50 [12] 1.52 µM | EC50 [13] 0.556 µM | EC50 [14] 17.5 µM | CC50 [15] 13.6 µM | CC50 [16] 17.5 µM | IC50 (cells) 1.95 µM | AC50 (HEK293) 4.37 µM

Cc1ccc(S(=O)(=O)N2CCN(C(=O)/C=C/c3ccc(F)cc3)CC2)cc1
active: IC50 [17] 0.00767 µM

CC(C)N1C[C@H](C)[C@@H](CN(C)Cc2cccc(Cl)c2)Oc2c(NC(=O)c3ccncc3)cccc2C1=O
active: AC50 [18] 0.00208 µM | AC50 [19] 0.00208 µM | IC50 [20] 0.00102 µM

CC(=O)c1c(C)[nH]c(C(=O)COC(=O)C2CC2)c1C
inactive: IC50 [21] > 109 µM | IC50 [22] > 83.2 µM

COc1ccc(C2C(C#N)=C(N)SC(N)=C2C#N)cc1OC
> 31 µM (not active): IC50 [23]
